One assay deals with T1, H3R (Homo sapiens, UniProt Q9Y5N1).
T1 construct: expressed in transfected cells
Description: ERK1/2 phosphorylation (Western blot) in HEK-293 cells stably expressing H3R. The class given is cell-based. The procedure: Figure 7 Phosphorylation of ERK1/2 induced by ZEL-H16 in H3R-expressing HEK-293 cells. […] Signals were quantified by densitometric image analysis and p-ERK was normalized to a loading control (ERK). […] Concentration -dependent phosphorylation signals were quantified by densitometric analysis and p-ERK levels were normalized to total ERK levels. […] C, The phosphorylation of ERK1/2 induced by ZEL-H16 could be entirely abolished by co-incubation with H3R antagonist thioperamide (***p<0.001). Data represent the mean ±SE of three independent experiments.
HEK-293 cells stably expressing human H3R were grown in a 6-well plate and were serum starved 2 h in serum-free culture medium prior to stimulation. Cells were stimulated with the indicated H3R ligands at the designated concentrations. Incubations were stopped at the indicated times by removing the stimulation medium by aspiration. The cells were washed in ice-cold PBS and subsequently lysed in 100 µl of lysis buffer [20 mM HEPES (pH 7.5), 10 mM EDTA, 150 mM NaCl, 1% Triton X-100, and one tablet of complete protease inhibitor (Roche, Indianapolis, IN) per 50 mL] at 4°C on a rocker for 30 min. The lysates were centrifuged and separated by sodium dodecyl sulfate-polyacrylamide (12%) gel electrophoresis (SDS-PAGE) and blotted onto polyvinylidene difluoride membranes. Membranes were blocked for 1 h at room temperature in TBST (10 mmol/L Tris, 150 mmol/L NaCl, 0.1% Tween-20, pH 8.0) buffer containing 5% (v/w) skim milk. Membranes were probed overnight with primary antibodies against p-ERK1/2 (1∶1,000; Cell Signaling, Danvers, MA) in TBST containing 5% (v/w) BSA, and then probed with horseradish peroxidase-labeled secondary antibody (1∶5,000) for 1 h at room temperature in TBST containing 5% (v/w) milk powder. Immunoreactivity was detected by ECL assays. The blots were stripped and reprobed using antibodies against total ERK1/2 (1∶2,000) (Cell Signaling, Danvers, MA) as a control.

For the next assay, the target named is T2, H3R-EGFP (Homo sapiens, UniProt Q9Y5N1).
T2 construct: expressed in transfected cells
Description: Recycling of internalized H3R-EGFP to the cell surface, confocal microscopy. In kind it is cell-based. The following applies: 20 µM ZEL-H16 or 500 µM histamine for 30 min, cycloheximide 100 µg/ml. As to the method: Figure 6 Localization of internalized H3R-EGFP stably expressed in HEK-293 cells and recycling of internalized H3R to the cell surface. […] All pictures shown are representative of at least three independent experiments.
HEK-293 cells stably expressing H3R-EGFP were seeded in covered glass-bottom 6-well plates. […] After fixing the cells with 4% paraformaldehyde for 10 min, cells were mounted in mounting reagent (DTT/PBS/glycerol). Confocal images were taken on a Zeiss LSM 510 microscope with an attached Axiovert 200 microscope and LSM5 computer system. Images were collected using QED camera software and processed with Adobe Photoshop.

The target of another assay is T3, hH1R (Homo sapiens, UniProt P35367).
T3 construct: expressed in transfected cells
Description: Intracellular Ca2+ flux assay in HEK-293 cells stably expressing hH1R. The class given is cell-based. An excerpt: Figure 3 The selectivity of ZEL-H16 for hH3R in intracellular Ca^2+ flux assay and CRE-luciferase transcription assay. A–C, Intracellular Ca^2+ flux or CRE-driven luciferase activity induced by ZEL-H16 in HEK-293 cells stably expressing hH1R (A), hH2R (B), or hH4R (C). […] The presented data points are the mean ±SE of triplicate values from a single experiment and are representative of three separate experiments. Statistical analysis between ZEL-H16 added or not added for each concentration point in the kinetic graph was done using a t-test (PRISM software). G, Relative expression of hH1R, hH2R, hH3R and hH4R on transfected HEK-293 cells by ELISA quantification for Flag-tagged cell-surface receptors (***p<0.001, compared to non-transfected HEK 293 cells).
The stably H1R-expressing HEK-293 cells were harvested with Cell Stripper (Mediatech, Herndon, VA), washed twice with phosphate-buffered saline (PBS), and resuspended in Hanks’ balanced salt solution (140 mM NaCl, 5 mM KCl, 10 mM HEPES, pH 7.4, 1 mM CaCl2, 1 mM MgCl2, 1 mg/ml glucose) containing 0.025% bovine serum albumin. […] Calcium flux was measured using excitation at 340 and 380 nm in a Infinite 200 PRO multifunctional microplate reader (Tecan Austria GmbH, Grödig, AT ) and [Ca^2+]i was measured using the 340/380 excitation ratio (R 340/380).

Assay [1] has as its target T4, human histamine H3 receptor (Homo sapiens, UniProt Q9Y5N1).
T4 construct: expressed in transfected cells
In words: Competitive/saturation binding with [3H]N-α-methylhistamine, H3R/HEK-293 cell membranes. As to the method: Figure 4 Competition binding experiments with [^3H]-N-α-methylhistamine. […] The presented data are the means ±SE of values from a single experiment performed in duplicate and are representative of three to six separate experiments.
HEK-293 cells stably expressing H3R were harvested and resuspended in ice-cold 50 mM Tris-HCl (pH 7.4) containing a complete protease inhibitor cocktail tablet and mixed by inverting. The cell pellet was homogenized with a Polytron PT 1200 set at 4000 rpm and centrifuged at 1,000 g for 5 min. The supernatant was then centrifuged twice at 50,000 g for 30 min at 4°C. Finally, the resulting pellet was gently suspended in 50 mM Tris-HCl (pH 7.4) buffer and the membrane concentration was determined using Bio-Rad protein assays.
The membranes (50 µg of protein) were incubated with [^3H] N-α-methylhistamine at various concentrations (from 0.03 nM to 50 nM) for saturation binding assays. For competitive binding assays, the membranes (50 µg of protein) were incubated with 10 nM [^3H] N-α-methylhistamine for recombinant hH3R or 2nM [^3H] N-α-methylhistamine for rat brain H3R in the presence of various compound concentrations in the buffer (50 mM Tris–HCl, pH 7.4). […] Following three washes, the membrane-bound radioactivity was measured on a Topcount (PerkinElmer) at 20°C. […] IC50 values were converted to Ki values using the Cheng-Prusoff equation. Each experiment was performed in duplicate and repeated three to six times. All data were analyzed by nonline arregression using GraphPad Prism version 4.0 software.

T1 sequence (Q9Y5N1 whole entry): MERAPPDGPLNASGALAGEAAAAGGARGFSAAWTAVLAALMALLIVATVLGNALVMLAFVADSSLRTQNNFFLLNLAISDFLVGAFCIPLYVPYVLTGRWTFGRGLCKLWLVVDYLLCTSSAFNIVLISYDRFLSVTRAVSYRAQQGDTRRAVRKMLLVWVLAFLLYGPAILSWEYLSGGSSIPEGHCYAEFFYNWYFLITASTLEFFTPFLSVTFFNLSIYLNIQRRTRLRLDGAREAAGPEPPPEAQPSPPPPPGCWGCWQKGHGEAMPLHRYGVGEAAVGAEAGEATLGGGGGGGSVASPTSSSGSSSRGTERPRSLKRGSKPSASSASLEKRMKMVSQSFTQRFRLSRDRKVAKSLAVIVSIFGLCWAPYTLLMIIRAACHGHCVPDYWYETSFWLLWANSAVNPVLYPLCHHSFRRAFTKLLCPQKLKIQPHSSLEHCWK
T4 sequence (Q9Y5N1 whole entry): as above
T3 sequence (P35367 whole entry): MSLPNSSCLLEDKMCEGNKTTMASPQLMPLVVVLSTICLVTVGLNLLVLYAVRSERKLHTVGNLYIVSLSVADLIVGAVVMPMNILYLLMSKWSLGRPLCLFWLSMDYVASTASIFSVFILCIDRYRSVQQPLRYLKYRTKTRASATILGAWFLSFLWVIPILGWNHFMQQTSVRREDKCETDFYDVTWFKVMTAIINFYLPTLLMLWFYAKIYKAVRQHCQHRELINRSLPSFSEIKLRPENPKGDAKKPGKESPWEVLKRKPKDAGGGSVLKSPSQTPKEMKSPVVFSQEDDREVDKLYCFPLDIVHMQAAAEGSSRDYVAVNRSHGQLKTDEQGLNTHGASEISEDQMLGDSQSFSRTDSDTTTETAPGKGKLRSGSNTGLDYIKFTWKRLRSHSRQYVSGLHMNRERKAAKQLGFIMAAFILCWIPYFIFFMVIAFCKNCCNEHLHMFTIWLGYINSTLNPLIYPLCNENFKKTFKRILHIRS
T2 sequence (Q9Y5N1 whole entry): as the sequence (Q9Y5N1 whole entry) above

Broadly, the EC50 is the concentration giving half of the maximal effect. Low values mean greater potency, high ones weaker potency. As a reminder, the Ki is a dissociation constant, usually derived from enzyme kinetics or from competition with a known ligand. `c1ccc2c(c1)c(CCCN1CCCCC1)cn2CCCN1CCCCC1` [ZEL-H16] showed an EC50 on H3R (10 nM to 100 µM, Western-blot densitometry) of 1100 ± 100 nM. Moreover, the “time of maximal ERK1/2 activation after stimulation” value at H3R (1 µM) is 2 min. For the same molecule, the Emax at 1 µM at H3R (HEK293, read-out: maximal activation of ERK1/2 relative to maximal activation induced by histamine, 1 µM) is about 50%. Moreover, the “time for internalized H3R to recycle to the cell surface after agonist removal” value at H3R-EGFP is recorded as at most 3 h. At hH1R (ZEL-H16 added to histamine), the “antagonist activity: influence on Ca2+ release stimulated by histamine” value is “neither modulate the intracellular Ca^2+ release stimulated by histamine”. In addition, the “agonist activity: intracellular Ca2+ release” value at hH1R (ZEL-H16 alone, compared to histamine) is recorded as “did not induce similar intracellular Ca^2+ release”. In addition, the inhibition constant (Ki) in assay [1] (10 nM [3H]N-α-methylhistamine, H3R/HEK-293 membranes, read-out: Ki) amounted to 2.07 ± 0.8 nM. For the same molecule, the “affinity for human H3R as compared to histamine” value in assay [1] (higher affinity than histamine) is listed as “approximately 20 fold”.

The values are drawn from PMC3411647 (PLoS ONE, 2012).
